Consider 27 molecules from patent US20240239752A1, “BICYCLIC HETEROAROMATIC INHIBITORS OF KLK5” (BioCryst Pharmaceuticals, Inc., priority 2021, published 2024).

pIC50: −log10 of the molar value.

In this experiment the target is T1, recombinant human KLK5 (Homo sapiens, UniProt Q9Y337).
T1 construct: purchased Novoprotein or R&D Systems C415 or 1108-SE
T1 sequence (Q9Y337 23-293): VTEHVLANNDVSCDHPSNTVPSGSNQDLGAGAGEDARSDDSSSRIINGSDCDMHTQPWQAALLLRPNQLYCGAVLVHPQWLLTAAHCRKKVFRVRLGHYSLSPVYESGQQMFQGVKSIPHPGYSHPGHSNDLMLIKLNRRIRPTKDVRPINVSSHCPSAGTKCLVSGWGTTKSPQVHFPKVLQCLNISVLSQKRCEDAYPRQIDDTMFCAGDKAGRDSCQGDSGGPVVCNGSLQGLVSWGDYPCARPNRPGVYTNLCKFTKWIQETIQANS
As to the kind of experiment: Kallikrein (KLK) 5 enzymatic assay (Boc-VPR-AMC fluorogenic substrate). It counts as biochemical. The note with it: recombinant human KLK5 0.1 μg/well, Boc-VPR-AMC 100 μM, pH 7.5, room temperature, 1% DMSO; tested a minimum of three times. The source says:
Kallikrein-5 (KLK5) is a member of the serine protease family of proteolytic enzymes, confirmed to have trypsin-like activity (Michael I P, et al. Biochemical and enzymatic characterization of human kallikrein 5 (hK5), a novel serine protease potentially involved in cancer progression (J. Biol. Chem. 2005 Apr. 15; 280 (15): 14628-35). Boc-VPR-AMC is a fluorogenic peptide substrate composed of the short peptide chain, Valine-Proline-Arginine (VPR) and the fluorophore, 7-amino-4-methylcoumarin (AMC). KLK5 is able to cleave the fluorogenic peptide substrate Boc-VPR-AMC, releasing the AMC fluorophore, which causes a fluorescent emission in proportion with the enzymatic activity of KLK5. The KLK5 enzymatic activity is monitored by measuring fluorescent emission at wavelengths of 380 nm (excitation) and 460 nm (emission).
The IC50 value of compounds against KLK5 (i.e., the concentration of the compound that inhibits 50% of the enzymatic activity) was calculated according to the procedure reported by R&D systems (Recombinant human KLK5, Catalog Number: 1108-SE), with the exception the pH of the assay was modified from 8.0 to 7.5. Specifically, recombinant human KLK5 (Novoprotein Catalog #C415 or R&D systems Catalog #1108-SE) and fluorogenic peptide Boc-VPR-AMC substrate (R&D Catalog #ES011) were each separately diluted in assay buffer (0.1 M NaH2PO4 buffer, pH 7.5). The compounds of the disclosure were dissolved in DMSO at a concentration of 10 mM. A portion of this stock solution was added to the recombinant human KLK5 solution to provide a desired concentration of the compounds and the mixture was incubated at room temperature. The reaction was initiated by the addition of the fluorogenic peptide substrate at room temperature. The final concentration of recombinant human KLK5 was 0.1 μg/well and the final concentration of the fluorogenic substrate was 100 μM (final volume of 100 μL, 1% DMSO). The assays were performed in 96 well F16 Black Maxisorp Plate (Nunc Catalog #475515). Controls included assay buffer alone and enzyme solutions to which DMSO was added. The reaction rates were measured spectrophotometrically by excitation at 380 nm and emission at 460 nm on a Biotek Synergy H1 plate reader.
The reaction rate for enzyme alone was compared to the reaction rate of enzyme in the presence of compound and the percent inhibition was calculated as shown below:
Percent Inhibition=[Rate with inhibitor/Rate without inhibitor)]×100
An IC50 indicates a compound concentration that inhibits 50% of the enzymatic activity. Compounds were tested a minimum of three times.
By pIC50 is commonly meant −log10 of the IC50, conventionally taken in molar units. With `COc1c(-c2ccc3nn(C4CCC4)c(COc4ccccc4CC(=O)O)c3c2)ccnc1C(=N)N` [Compound 24b, 2-(2-((5-(2-carbamimidoyl-3-methoxypyridin-4-yl)-2-cyclobutyl-2H-indazol-3-yl)methoxy)phenyl)acetic acid], the pIC50 was above 6.00.

With `CC(C)n1nc(COc2ccccc2CC(=O)O)c2cc(-c3ccc4nccc(N)c4c3)ccc21` [Compound 25c, 2-(2-((5-(4-aminoquinolin-6-yl)-1-isopropyl-1H-indazol-3-yl)methoxy)phenyl)acetic acid], the pIC50 is 5.00 to 6.00.

With `CC(C)n1nc(COc2ccccc2CC(=O)O)c2cc(-c3ccc4[nH]c(N)nc4c3)ccc21` [Compound 26c, 2-(2-((5-(2-amino-1H-benzo[d]imidazol-5-yl)-1-isopropyl-1H-indazol-3-yl)methoxy)phenyl)acetic acid], the pIC50 was 5.00 to 6.00.

Consider `CC(C)n1nc(COc2ccccc2CC(=O)O)c2cc(-c3ccc4oc(N)nc4c3)ccc21` [Compound 27c, 2-(2-((5-(2-aminobenzo[d]oxazol-5-yl)-1-isopropyl-1H-indazol-3-yl)methoxy)phenyl)acetic acid], for which the pIC50 was below 5.00.

For `N=C(N)c1cccc(-c2ccc3c(c2)c(COc2ccccc2CC(=O)O)nn3C2CCC2)c1` [Compound 28d, 2-(2-((5-(3-carbamimidoylphenyl)-1-cyclobutyl-1H-indazol-3-yl)methoxy)phenyl)acetic acid], the pIC50 was above 6.00.

In the case of `CC(C)n1nc(COc2ccccc2CC(=O)O)c2cc(-c3ccc(C(=N)N)c(O)c3)ccc21` [Compound 29c, 2-(2-((5-(4-carbamimidoyl-3-hydroxyphenyl)-1-isopropyl-1H-indazol-3-yl)methoxy)phenyl)acetic acid], the pIC50 is below 5.00.

On to `CC(C)n1nc(COc2ccccc2CC(=O)O)c2cc(-c3cccc4c(N)noc34)ccc21` [Compound 30c, 2-(2-((5-(3-aminobenzo[d]isoxazol-7-yl)-1-isopropyl-1H-indazol-3-yl)methoxy)phenyl)acetic acid], for which the pIC50 is below 5.00.

Consider `CC(C)n1nc(COc2ccccc2CC(=O)O)c2cc(-c3cccc4c(N)n[nH]c34)ccc21` [Compound 31c, 2-(2-((3′-amino-1-isopropyl-1H, 1′H-[5,7′-biindazol]-3-yl)methoxy)phenyl)acetic acid], for which the pIC50 was 5.00 to 6.00.

As to `CC(C)n1nc(COc2ccccc2CC(=O)O)c2cc(-c3ccc4[nH]nc(N)c4c3)ccc21` [Compound 32c, 2-(2-((3′-amino-1-isopropyl-1H, 1′H-[5,5′-biindazol]-3-yl)methoxy)phenyl)acetic acid], the pIC50 was below 5.00.

`CC(C)n1nc(COc2ccccc2CC(=O)O)c2cc(-c3ccn4ncc(N)c4n3)ccc21` [Compound 33c, 2-(2-((5-(3-aminopyrazolo[1,5-a]pyrimidin-5-yl)-1-isopropyl-1H-indazol-3-yl)methoxy)phenyl)acetic acid]: the pIC50 is below 5.00.

As to `CC(C)n1nc(COc2ccccc2CC(=O)O)c2cc(-c3ccc4cc(N)ncc4c3)ccc21` [Compound 34c, 2-(2-((5-(3-aminoisoquinolin-7-yl)-1-isopropyl-1H-indazol-3-yl)methoxy)phenyl)acetic acid], the pIC50 was below 5.00.

On to `CC(C)n1nc(COc2ccccc2CC(=O)O)c2cc(-c3ccc4nc(N)ccc4c3)ccc21` [Compound 35c, 2-(2-((5-(2-aminoquinolin-6-yl)-1-isopropyl-1H-indazol-3-yl)methoxy)phenyl)acetic acid], for which the pIC50 was below 5.00.

As for `CC(C)n1nc(COc2ccccc2CC(=O)O)c2cc(-c3ccc4cc(N)ccc4c3)ccc21` [Compound 36c, 2-(2-((5-(6-aminonaphthalen-2-yl)-1-isopropyl-1H-indazol-3-yl)methoxy)phenyl)acetic acid], the pIC50 was below 5.00.

Regarding `Nc1nccc2ccc(-c3ccc4c(c3)c(COc3ccccc3CC(=O)O)nn4C3CCC3)cc12` [Compound 37c, 2-(2-((5-(1-aminoisoquinolin-7-yl)-1-cyclobutyl-1H-indazol-3-yl)methoxy)phenyl)acetic acid], the pIC50 is above 6.00.

In the case of `CC(C)n1nc(COc2ccccc2CC(=O)O)c2cc(-c3cc4cc(N)ccc4cn3)ccc21` [Compound 38c, 2-(2-((5-(6-aminoisoquinolin-3-yl)-1-isopropyl-1H-indazol-3-yl)methoxy)phenyl)acetic acid], the pIC50 is below 5.00.

Consider `CC(C)n1nc(COc2ccccc2CC(=O)O)c2cc(-c3ccc4ncnc(N)c4c3)ccc21` [Compound 39c, 2-(2-((5-(4-aminoquinazolin-6-yl)-1-isopropyl-1H-indazol-3-yl)methoxy)phenyl)acetic acid], for which the pIC50 was below 5.00.

As to `CC(C)n1nc(COc2ccccc2CC(=O)O)c2cc(-c3cccc4c(N)nccc34)ccc21` [Compound 40b, 2-(2-((5-(1-aminoisoquinolin-5-yl)-1-isopropyl-1H-indazol-3-yl)methoxy)phenyl)acetic acid], the pIC50 is above 6.00.

For the molecule `CC(C)n1nc(COc2ccccc2CC(=O)O)c2cc(-c3ccc4c(N)nc(N)nc4c3)ccc21` [Compound 41c, 2-(2-((5-(2,4-diaminoquinazolin-7-yl)-1-isopropyl-1H-indazol-3-yl)methoxy)phenyl)acetic acid], the pIC50 was below 5.00.

On to `Nc1nccc2ccc(-c3ccc4c(c3)c(COc3ccccc3CC(=O)O)nn4C3CCCC3)cc12` [Compound 42d, 2-(2-((5-(1-aminoisoquinolin-7-yl)-1-cyclopentyl-1H-indazol-3-yl)methoxy)phenyl)acetic acid], for which the pIC50 was above 6.00.

Regarding `CC(C)n1nc(COc2ccccc2CC(=O)O)c2cc(-c3ccc4c(N)cccc4c3)ccc21` [Compound 43d, 2-(2-((5-(5-aminonaphthalen-2-yl)-1-isopropyl-1H-indazol-3-yl)methoxy)phenyl)acetic acid], the pIC50 was below 5.00.

For `CC(C)n1nc(COc2ccccc2CC(=O)O)c2cc(-c3ccc4ccnc(O)c4c3)ccc21` [Compound 44d, 2-(2-((5-(1-hydroxyisoquinolin-7-yl)-1-isopropyl-1H-indazol-3-yl)methoxy)phenyl)acetic acid], the pIC50 is below 5.00.

With `CC(C)n1nc(COc2ccccc2CC(=O)O)c2cc(-c3cccc(-c4c[nH]nc4N)c3)ccc21` [Compound 45c, 2-(2-((5-(3-(3-amino-1H-pyrazol-4-yl)phenyl)-1-isopropyl-1H-indazol-3-yl)methoxy)phenyl)acetic acid], the pIC50 was below 5.00.

Consider `CC(C)n1nc(COc2ccccc2CC(=O)O)c2cc(-c3ccc4cc(Cl)nc(N)c4c3)ccc21` [Compound 46d, 2-(2-((5-(1-amino-3-chloroisoquinolin-7-yl)-1-isopropyl-1H-indazol-3-yl)methoxy)phenyl)acetic acid], for which the pIC50 is below 5.00.

With `CC(C)n1nc(COc2ccccc2CC(=O)O)c2cc(-c3cccc(-c4nn[nH]n4)c3)ccc21` [Compound 47c, 2-(2-((5-(3-(2H-tetrazol-5-yl)phenyl)-1-isopropyl-1H-indazol-3-yl)methoxy)phenyl)acetic acid], the pIC50 is below 5.00.

Consider `Nc1nccc2ccc(-c3ccc4c(c3)c(COc3ccccc3CC(=O)O)nn4C3CCCCC3)cc12` [Compound 48d, 2-(2-((5-(1-aminoisoquinolin-7-yl)-1-cyclohexyl-1H-indazol-3-yl)methoxy)phenyl)acetic acid], for which the pIC50 is above 6.00.

`CC(C)n1nc(COc2ccccc2CC(=O)O)c2cc(-c3ccc4c(N)noc4c3)ccc21` [Compound 49a, 2-(2-((5-(3-aminobenzo[d]isoxazol-6-yl)-1-isopropyl-1H-indazol-3-yl)methoxy)phenyl)acetic acid]: the pIC50 was below 5.00.

As to `CC(C)n1nc(COc2ccccc2CC(=O)O)c2cc(-c3ccc4ccc(N)nc4c3)ccc21` [Compound 50c, 2-(2-((5-(2-aminoquinolin-7-yl)-1-isopropyl-1H-indazol-3-yl)methoxy)phenyl)acetic acid], the pIC50 is below 5.00.
